Reference: US4525360A, “Anti-psychotic phenylindene derivatives and acid addition salts thereof” (Kefalas A/S, priority 1982, dated 1985)
Counter-ions that a name gives are not always drawn.

Experiments:
[1] = Catalepsy wire mesh, rat, max.; format: in vivo, rats; details: Rattus norvegicus, po, 6 h, read-out: Catalep. ED50 (po)
Description: Catalepsy wire mesh, rat, max. (ED50 μmol/kg p.o.)
A vertical wire netting (50 cm×49 cm). The meshes (openings) of the netting are square (1 cm×1 cm). The wire diameter is 2 mm.
The animals are labeled and used in groups of five. The test substance is administered orally (p.o.) at 4 dose levels selected from a fixed dose scale.
The animals are placed in the middle of the vertical wire netting 60, 120, 180, 240, 300 and 360 minutes after administration of the test compound. The animals are considered cataleptic when they remain immobile during a period of 15 seconds. This cataleptic reaction is designated +.
If the rats are "atonic" and passively slide down the wire mesh they are considered not cataleptic. If the animals climb up and down the wire mesh they are nor cataleptic. In both situations the designation - is used.

5-HT2 receptors = molecular target: T1, 5-HT2 receptors (Rattus norvegicus, UniProt P14842); experiment: 3H-spiroperidol binding to rat cortical membranes (5-HT2 receptors); details: Table 1, read-out: 3H-Spiroperidol bindings 5-HT2 receptors IC50
T1 construct: Whole cortex is dissected out and homogenized; from tissue; host or cells: rat whole cortex membranes
Description: ^3 H-spiroperidol binding to rat cortical membranes (5-HT2 Receptors)
50 mM Tris buffer pH 7.7 (at 25° C.) (icecold) stored in the cold: 7.38 gram Trisma®--7.7/l.
Mixed Tris buffer (icecold) made fresh every day jut before use.
10^-5 M Mianserin: 3.01 mg mianserin-HCl/10 ml H2 O, Diluted 1:100.
3×10^-6 M Sulpiride: 3.41 mg sulpiride/10 ml H2 O, Diluted 0.3 ml to 100 ml.
Whatman GF/B filters 25 mm.
Spiroperidol[benzene ring--^3 H--] approx. 30 Ci/mmol from New England Nuclear
(Diluted daily to 5 nM in 3×10^-6 M sulpiride solution).
Ultra Turrax homogenizer.
(§1) Rats are killed by guillutination, exsanguinated and their brains removed. Whole cortex is dissected out and homogenized (Ultra Turrax, 10 sec.) in 100 vol (w/v) icecold 50 mM buffer pH 7.7 (at 25° C.). The homogenate is centrifuged twice at 20.000 g (13.000 rpm) for 10 min. at 4° C., with rehomogenization (Ultra Turrax, 10 sec.) of the intermediate pellet in fresh buffer. The pellet is homogenized (Ultra Turrax, 10 sec.) in 80 volumes (w/v) of icecold, freshly prepared mixed Tris buffer.
(§2) Incubation tubes in triplicate receive on ice 100 μl of drugs dissolved in water, 100 μl of 5 nM ^3 H-spiroperidol and 800 μl of the cold membrane suspension. The tubes are incubated at 37° C. for 10 min. and rapidly filtered under vacuum through Whatman GF/B filters. The tubes are rinsed with 5 ml and thereafter the filters with 2×5 ml icecold 50 mM Tris buffer, pH 7.7 (at 25° C.). The radioactivity on the filters is determined by liquid scintillation counting after the addition of 5 ml of picofluor-15. The unspecific binding of ^3 H-spiroperidol is determined by incubating the samples with 10^-6 M mianserine.
Each series consist of 15-16 triple samples (3 controls, 2-3 containing 10^-6 mianserine and two series of test compounds in 5 concentrations).
The means of the control samples and of the 10^-6 M mianserine samples are calculated.

methylphenidate = experiment: Methylphenidate antagonism, mice i.p.; format: in vivo; details: Mus musculus, ip, read-out: MePh Antag. ED50 (ip)
Description: Methylphenidate antagonism (ED50 μmol/kg i.p.)
Perspex observation cages without bottom and lid, consisting of 5 sections each measuring 12×25×30 cm.
Two hours after injection of test substance, methylphenidate, 60 mg/kg, is injected s.c. After administration of methylphenidate the mice are placed in the observation cages, 2 in each cage, where they remain for exactly 1 hour. The cages are placed on corrugated paper, the corrugations facing upwards. It is examined whether the mice have been biting the corrugated paper or not.
The result is stated in fractions: 0/3, 1/3, 2/3 and 3/3 where 0, 1, 2 and 3 are the number of pairs which have not been biting on receipt of the dose in question.

5-HT, rat fundus strip = experiment: 5-HT antagonism, rat fundus strip; details: Rattus norvegicus, 10 min, read-out: 5HT rat-fundus-strip IC50
Description: 5-HT antagonism, rat fundus strip
5-hydroxytryptamine (5-HT).
Rats are killed by a blow on the head and exsanguinated. The stomach fundus is removed and carefully cleaned with Krebs solution at 30° C. The fundus is then stretched over a rounded end of a plastic rod about the thickness of a pencil, whereby the longitudinal direction of the muscle fibers is visible. The fundus is halved by carefully cutting in the central line and in the direction of these fibres. Along this incision two strips with a length of 15-25 mm and with width 1.5-2.5 mm are cut, one from each half of the fundus. The mucosa is then carefully removed. A thread is attached to each end of a strip. One thread is fixed to a pin in the bottom of the organ bath and the other thread is fixed to an isotonic transducer. The strip is kept under a tone of 1.5 to 2.0 g. […] Concentration response curves to 5-HT are obtained by adding 5-HT to the bath in increasing concentrations (0.1 ml of 10^-9 M resulting in 1.0×10^-11 M in the bath, 0.2 ml of 10^-9 M resulting in 3.0×10^-11 M, 0.1 ml of 10^-8 M resulting in about 1×10^-10 M, 0.2 ml of 10^-8 M resulting in about 3×10^-10 M--0.2 ml of 10^-4 resulting in about 3×10^-6 M in the bath). Each concentration of 5-HT is allowed to exert its maximal effect (1-10 min) before the next is added. When the maximal response is reached the tissue is carefully washed. The test substance is added to the bath for 10 min. before examining its effect on a new cumulative 5-HT concentration response curve. From the control concentration effect curve the Km for 5-HT is calculated.
The results are recorded as mean percentage inhibition.
Substrate concentration for 5-HT: 1.0×10^-9 M to 1.0×10^-8 M.
Michaelis-Menten constant for 5-HT is estimated each time.

D-2 receptors = molecular target: T2, D-2 receptors (Rattus norvegicus, UniProt P61169); experiment: 3H-spiroperidol binding to rat striatal membranes (D-2 receptors); details: Table 1, read-out: 3H-Spiroperidol bindings DA-2 receptors IC50
T2 construct: The corpora striata are dissected out and homogenized; from tissue; host or cells: rat corpus striatum membranes
Description: 3H-spiroperidol binding to rat striatal membranes (D-2 receptors)
0.1% Ascorbic acid (icecold) made fresh every day
50 mM Tris buffer pH 7.7 (at 25° C.) (icecold) stored in the cold
50 mM Tris buffer pH 7.5 (at 25° C.), containing 0.2% ascorbic acid
(icecold) made fresh every day just before use
Mixed Tris buffer (icecold) made fresh every day just before use
96 ml 50 mM Tris pH 7.5 (at 25° C.) containing ascorbic acid
Whatman GF/B filters 25 mm
Spiroperidol[benzene ring-^3 H] approximately 30 Ci/mmol
from New England Nuclear. (Diluted daily to 5 nM in 0.1% ascorbic acid)
as §1, with “The corpora striata are” for “Whole cortex is”, “min” for “min.”, “200” for “80”
as §2, with “0.1% ascorbic acid,” for “water,”, “nM^3” for “nM ^3”, “tissue suspension .” for “membrane suspension.”, “min” for “min.”, “scintillation liquid (e.g. picofluor-15).” for “5 ml of picofluor-15.”, “10^-6M (+)butaclamol.” for “10^-6 M mianserine.”
Each series consists of 15 triple samples (3 controls, 2 containing 10^-6M (+)butaclamol, and two series of test compounds in 5 concentrations).
The means of the controls and (+)butaclamol are calculated.

T2 sequence (P61169 whole entry): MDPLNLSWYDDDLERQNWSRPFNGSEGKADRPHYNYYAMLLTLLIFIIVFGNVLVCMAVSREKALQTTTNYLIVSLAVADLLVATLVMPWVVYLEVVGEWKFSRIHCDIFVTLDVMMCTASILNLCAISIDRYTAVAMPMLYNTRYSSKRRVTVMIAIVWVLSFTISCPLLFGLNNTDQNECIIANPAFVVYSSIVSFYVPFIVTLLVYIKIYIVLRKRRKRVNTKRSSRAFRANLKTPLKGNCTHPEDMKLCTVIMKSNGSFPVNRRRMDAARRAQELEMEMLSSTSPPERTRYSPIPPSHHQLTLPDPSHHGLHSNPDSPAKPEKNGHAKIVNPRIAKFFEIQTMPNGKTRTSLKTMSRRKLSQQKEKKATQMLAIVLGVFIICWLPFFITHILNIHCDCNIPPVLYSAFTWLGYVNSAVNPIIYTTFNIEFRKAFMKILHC
T1 sequence (P14842 whole entry): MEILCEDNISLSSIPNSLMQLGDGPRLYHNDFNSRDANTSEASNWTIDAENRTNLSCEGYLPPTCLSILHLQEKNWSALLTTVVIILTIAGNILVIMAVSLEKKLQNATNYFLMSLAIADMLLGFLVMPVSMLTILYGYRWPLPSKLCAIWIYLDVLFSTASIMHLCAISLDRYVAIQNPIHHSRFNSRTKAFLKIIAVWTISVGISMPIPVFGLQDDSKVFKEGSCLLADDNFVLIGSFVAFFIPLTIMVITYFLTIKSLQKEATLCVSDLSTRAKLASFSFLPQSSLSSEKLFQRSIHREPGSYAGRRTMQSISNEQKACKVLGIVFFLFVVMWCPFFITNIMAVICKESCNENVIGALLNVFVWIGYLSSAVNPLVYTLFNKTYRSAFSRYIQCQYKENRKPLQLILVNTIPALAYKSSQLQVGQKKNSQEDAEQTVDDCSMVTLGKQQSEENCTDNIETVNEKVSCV

With `OCCN1CCN(CC/C=C2/c3ccccc3Sc3ccc(C(F)(F)F)cc32)CC1` [Cis(Z)-flupentixol, reference compound] the ED50 [1] was 2.1 µmol/kg, the IC50 (5-HT2 receptors) was 13 nM and the ED50 (methylphenidate) was 0.14 µmol/kg. The IC50 (5-HT, rat fundus strip) was 1050 nM.

In the case of `O=C(c1ccc(F)cc1)C1CCN(CCn2c(=O)[nH]c3ccccc3c2=O)CC1` [Ketanserin, reference compound], the IC50 (D-2 receptors) is reported as 2300 nM and the IC50 (5-HT, rat fundus strip) is reported as over 10000 nM.

`Cc1ccc2c(c1)C(C1=CCN(CCO)CC1)=CC2c1ccc(F)cc1` (centres unmarked) [Lu 19-153, 3-(4'-Fluorophenyl)-1-(1-hydroxyethyl-1,2,3,6-tetrahydropyrid-4-yl)-6-methyl-1-indene, hydrobromide] showed an ED50 [1] of 1.4 µmol/kg, an IC50 (5-HT2 receptors) of 4.6 nM and an ED50 (methylphenidate) of 0.39 µmol/kg. The IC50 (5-HT, rat fundus strip) was 34 nM.

With `OCCN1CCC(C2=CC(c3ccc(F)cc3)c3ccc(F)cc32)CC1` (centres unmarked) [Lu 19-158, hydrochloride] the ED50 [1] was 26 µmol/kg, the IC50 (D-2 receptors) was 12 nM and the IC50 (5-HT2 receptors) was 2.8 nM. It also gave an ED50 (methylphenidate) of 4.2 µmol/kg and an IC50 (5-HT, rat fundus strip) of 26 nM.

For `OCCN1CC=C(C2=CC(c3ccc(F)cc3)c3ccc(C(F)(F)F)cc32)CC1` (centres unmarked) [Lu 20-004, 3-(4'-Fluorophenyl)-1-(1-hydroxyethyl-1,2,3,6-tetrahydropyrid-4-yl)-6-trifluoromethyl-1-indene, hydrobromide], the ED50 [1] was 1.3 µmol/kg, the IC50 (5-HT2 receptors) was 35 nM and the ED50 (methylphenidate) was 1 µmol/kg. It also gave an IC50 (5-HT, rat fundus strip) of 3260 nM.

`Cc1ccc2c(c1)C(C1CCN(CCO)CC1)=CC2c1ccc(F)cc1` (centres unmarked) [Lu 20-008, 3-(4'-Fluorophenyl)-1-(1-hydroxyethyl-4-piperidyl)-6-methyl-1-indene, hydrochloride] gave an ED50 [1] of 2.3 µmol/kg, an IC50 (D-2 receptors) of 8.9 nM and an IC50 (5-HT2 receptors) of 4 nM. It also gave an ED50 (methylphenidate) of 0.64 µmol/kg and an IC50 (5-HT, rat fundus strip) of 16 nM.

Work on `O=C1NCCN1CCN1CCC(C2C=C(c3ccc(F)cc3)c3ccc(F)cc32)CC1` (centres unmarked) [Lu 20-053, 6-Fluoro-3-(4'-fluorophenyl)-1-(1-(2-imidazolidinon-1-ylethyl)-4-piperidyl)-2-indene] yielded an ED50 [1] of over 94 µmol/kg, an IC50 (D-2 receptors) of 83 nM and an IC50 (5-HT2 receptors) of 31 nM. The ED50 (methylphenidate) was 19.5 µmol/kg and the IC50 (5-HT, rat fundus strip) was 69 nM.

With `CN1CCC(C2=CC(c3ccc(F)cc3)c3ccc(C(F)(F)F)cc32)CC1` (centres unmarked) [Lu 20-071, 3-(4'-Fluorophenyl)-1-(1-methyl-4-piperidyl)-6-trifluoromethyl-1-indene, hydrobromide] the ED50 [1] was 2 µmol/kg, the IC50 (5-HT2 receptors) was 15 nM and the ED50 (methylphenidate) was 1.7 µmol/kg. For the same compound, the IC50 (5-HT, rat fundus strip) was 1000 nM.

In the case of `CSc1ccc2c(c1)C(N1CCN(C)CC1)Cc1ccccc1S2` (centres unmarked) [Methiothepin, reference compound], the ED50 [1] is reported as 2.3 µmol/kg, the IC50 (D-2 receptors) is reported as 2.6 nM and the IC50 (5-HT2 receptors) is reported as 6.8 nM. It also gave an ED50 (methylphenidate) of 2.5 µmol/kg and an IC50 (5-HT, rat fundus strip) of 58 nM.
